From PMC5078040 (Oncotarget, 2016)

How the values were obtained:
AKT3 = target: T1, AKT3 (Homo sapiens, UniProt Q9Y243); experiment: KinomeScan; format: binding; details: 1uM
T1 construct: purchased DiscoveRx KINOMEscan

CDC2L2 = target: T2, CDC2L2 (Homo sapiens, UniProt Q9UQ88); experiment: KinomeScan; format: binding; details: 1uM
T2 construct: purchased DiscoveRx KINOMEscan

CHEK1 = target: T3, CHEK1 (Homo sapiens, UniProt O14757); experiment: KinomeScan; format: binding; details: 1uM
T3 construct: purchased DiscoveRx KINOMEscan

CSNK2A1 = target: T4, CSNK2A1 (Homo sapiens, UniProt P68400); experiment: KinomeScan; format: binding; details: 1uM
T4 construct: purchased DiscoveRx KINOMEscan

DCAMKL3 = target: T5, DCAMKL3 (Homo sapiens, UniProt Q9C098); experiment: KinomeScan; format: binding; details: 1uM
T5 construct: purchased DiscoveRx KINOMEscan

DLK = target: T6, DLK (Homo sapiens, UniProt Q12852); experiment: KinomeScan; format: binding; details: 1uM
T6 construct: purchased DiscoveRx KINOMEscan

[1] = target: T7, EGFR(L747-S752del, P753S) (Homo sapiens, UniProt P00533, DEL747-752/P753S); experiment: KinomeScan; format: binding; details: 1uM
T7 construct: purchased DiscoveRx KINOMEscan

EGFR(L858R,T790M) = target: T8, EGFR(L858R,T790M) (Homo sapiens, UniProt P00533, L858R/T790M); experiment: KinomeScan; format: binding; details: 1uM
T8 construct: purchased DiscoveRx KINOMEscan

EGFR(S752-I759del) = target: T9, EGFR(S752-I759del) (Homo sapiens, UniProt P00533, DEL752-759); experiment: KinomeScan; format: binding; details: 1uM
T9 construct: purchased DiscoveRx KINOMEscan

EGFR(T790M) = target: T10, EGFR(T790M) (Homo sapiens, UniProt P00533, T790M); experiment: KinomeScan; format: binding; details: 1uM
T10 construct: purchased DiscoveRx KINOMEscan

EPHB3 = target: T11, EPHB3 (Homo sapiens, UniProt P54753); experiment: KinomeScan; format: binding; details: 1uM
T11 construct: purchased DiscoveRx KINOMEscan

FER = target: T12, FER (Homo sapiens, UniProt P16591); experiment: KinomeScan; format: binding; details: 1uM
T12 construct: purchased DiscoveRx KINOMEscan

FGFR1 = target: T13, FGFR1 (Homo sapiens, UniProt P11362); experiment: KinomeScan; format: binding; details: 1uM
T13 construct: purchased DiscoveRx KINOMEscan

FGFR3 = target: T14, FGFR3 (Homo sapiens, UniProt P22607); experiment: KinomeScan; format: binding; details: 1uM
T14 construct: purchased DiscoveRx KINOMEscan

FLT3(K663Q) = target: T15, FLT3(K663Q) (Homo sapiens, UniProt P36888, K663Q); experiment: KinomeScan; format: binding; details: 1uM
T15 construct: purchased DiscoveRx KINOMEscan

FLT4 = target: T16, FLT4 (Homo sapiens, UniProt P35916); experiment: KinomeScan; format: binding; details: 1uM
T16 construct: purchased DiscoveRx KINOMEscan

GSK3A = target: T17, GSK3A (Homo sapiens, UniProt P49840); experiment: KinomeScan; format: binding; details: 1uM
T17 construct: purchased DiscoveRx KINOMEscan

HPK1 = target: T18, HPK1 (Homo sapiens, UniProt Q92918); experiment: KinomeScan; format: binding; details: 1uM
T18 construct: purchased DiscoveRx KINOMEscan

JNK2 = target: T19, JNK2 (Homo sapiens, UniProt P45984); experiment: KinomeScan; format: binding; details: 1uM
T19 construct: purchased DiscoveRx KINOMEscan

KIT(V559D,V654A) = target: T20, KIT(V559D,V654A) (Homo sapiens, UniProt P10721, V559D/V654A); experiment: KinomeScan; format: binding; details: 1uM
T20 construct: purchased DiscoveRx KINOMEscan

LRRK2 = target: T21, LRRK2 (Homo sapiens, UniProt Q5S007); experiment: KinomeScan; format: binding; details: 1uM
T21 construct: purchased DiscoveRx KINOMEscan

MAST1 = target: T22, MAST1 (Homo sapiens, UniProt Q9Y2H9); experiment: KinomeScan; format: binding; details: 1uM
T22 construct: purchased DiscoveRx KINOMEscan

MLCK = target: T23, MLCK (Homo sapiens, UniProt Q32MK0); experiment: KinomeScan; format: binding; details: 1uM
T23 construct: purchased DiscoveRx KINOMEscan

NEK10 = target: T24, NEK10 (Homo sapiens, UniProt Q6ZWH5); experiment: KinomeScan; format: binding; details: 1uM
T24 construct: purchased DiscoveRx KINOMEscan

NEK11 = target: T25, NEK11 (Homo sapiens, UniProt Q8NG66); experiment: KinomeScan; format: binding; details: 1uM
T25 construct: purchased DiscoveRx KINOMEscan

NEK7 = target: T26, NEK7 (Homo sapiens, UniProt Q8TDX7); experiment: KinomeScan; format: binding; details: 1uM
T26 construct: purchased DiscoveRx KINOMEscan

PAK3 = target: T27, PAK3 (Homo sapiens, UniProt O75914); experiment: KinomeScan; format: binding; details: 1uM
T27 construct: purchased DiscoveRx KINOMEscan

PIK3CA(H1047L) = target: T28, PIK3CA(H1047L) (Homo sapiens, UniProt P42336, H1047L); experiment: KinomeScan; format: binding; details: 1uM
T28 construct: purchased DiscoveRx KINOMEscan

PIP5K2B = target: T29, PIP5K2B (Homo sapiens, UniProt P78356); experiment: KinomeScan; format: binding; details: 1uM
T29 construct: purchased DiscoveRx KINOMEscan

PKAC-alpha = target: T30, PKAC-alpha (Homo sapiens, UniProt P17612); experiment: KinomeScan; format: binding; details: 1uM
T30 construct: purchased DiscoveRx KINOMEscan

PKMYT1 = target: T31, PKMYT1 (Homo sapiens, UniProt Q99640); experiment: KinomeScan; format: binding; details: 1uM
T31 construct: purchased DiscoveRx KINOMEscan

SGK2 = target: T32, SGK2 (Homo sapiens, UniProt Q9HBY8); experiment: KinomeScan; format: binding; details: 1uM
T32 construct: purchased DiscoveRx KINOMEscan

SNARK = target: T33, SNARK (Homo sapiens, UniProt Q9H093); experiment: KinomeScan; format: binding; details: 1uM
T33 construct: purchased DiscoveRx KINOMEscan

SNRK = target: T34, SNRK (Homo sapiens, UniProt Q9NRH2); experiment: KinomeScan; format: binding; details: 1uM
T34 construct: purchased DiscoveRx KINOMEscan

TAOK3 = target: T35, TAOK3 (Homo sapiens, UniProt Q9H2K8); experiment: KinomeScan; format: binding; details: 1uM
T35 construct: purchased DiscoveRx KINOMEscan

[2] = target: T36, TYK2(JH1domain-catalytic) (Homo sapiens, UniProt P29597); experiment: KinomeScan; format: binding; details: 1uM
T36 construct: TYK2(JH1domain-catalytic); purchased DiscoveRx KINOMEscan

YES = target: T37, YES (Homo sapiens, UniProt P07947); experiment: KinomeScan; format: binding; details: 1uM
T37 construct: purchased DiscoveRx KINOMEscan

PI4KB = target: T38, PI4KB (Homo sapiens, UniProt Q9UBF8); experiment: ADP-glo biochemical assay
T38 construct: purchased Invitrogen
Protocol: The reaction in each tube was started immediately by adding ATP and kept going for an hour under 37°C. After the tube cooled for 5 minutes at room temperature, 5 μL solvent reactions were carried out in a 384-well plate. Then 5 μL of ADP-Glo™ reagent was added into each well to stop the reaction and consume the remaining ADP within 40 minutes. At the end, 10 μL of kinase detection reagent was added into the well and incubated for 30 minutes to produce a luminescence signal. Luminescence signal was measured with an automated plate reader (Perkin-Elmer Envision) and each measurement was performed in triplicate.

[3] = system: panel of cancer cell lines derived from B-cell malignancies; experiment: Anti-proliferative assay (panel summary); format: cell-based; details: Homo sapiens; most of the cell lines including AML, B-cell lymphoma and multiple myeloma cell lines
Protocol: Cells were grown in 96-well culture plates (3000-4000/well). […] Cell proliferation was determined after treatment with compounds for 72 hours. Cell viability was measured using the CellTiter–Glo Assay Kit (Promega, USA), according to the manufacturer's instructions, and luminescence was measured in a multi-label reader (Envision, PerkinElmer, USA). Data were normalized to control groups (DMSO) and represented by the mean of three independent measurements with standard error <20%. GI50 values were calculated using Prism 5.0 (GraphPad Software, San Diego, CA).

T6 sequence (Q12852 whole entry): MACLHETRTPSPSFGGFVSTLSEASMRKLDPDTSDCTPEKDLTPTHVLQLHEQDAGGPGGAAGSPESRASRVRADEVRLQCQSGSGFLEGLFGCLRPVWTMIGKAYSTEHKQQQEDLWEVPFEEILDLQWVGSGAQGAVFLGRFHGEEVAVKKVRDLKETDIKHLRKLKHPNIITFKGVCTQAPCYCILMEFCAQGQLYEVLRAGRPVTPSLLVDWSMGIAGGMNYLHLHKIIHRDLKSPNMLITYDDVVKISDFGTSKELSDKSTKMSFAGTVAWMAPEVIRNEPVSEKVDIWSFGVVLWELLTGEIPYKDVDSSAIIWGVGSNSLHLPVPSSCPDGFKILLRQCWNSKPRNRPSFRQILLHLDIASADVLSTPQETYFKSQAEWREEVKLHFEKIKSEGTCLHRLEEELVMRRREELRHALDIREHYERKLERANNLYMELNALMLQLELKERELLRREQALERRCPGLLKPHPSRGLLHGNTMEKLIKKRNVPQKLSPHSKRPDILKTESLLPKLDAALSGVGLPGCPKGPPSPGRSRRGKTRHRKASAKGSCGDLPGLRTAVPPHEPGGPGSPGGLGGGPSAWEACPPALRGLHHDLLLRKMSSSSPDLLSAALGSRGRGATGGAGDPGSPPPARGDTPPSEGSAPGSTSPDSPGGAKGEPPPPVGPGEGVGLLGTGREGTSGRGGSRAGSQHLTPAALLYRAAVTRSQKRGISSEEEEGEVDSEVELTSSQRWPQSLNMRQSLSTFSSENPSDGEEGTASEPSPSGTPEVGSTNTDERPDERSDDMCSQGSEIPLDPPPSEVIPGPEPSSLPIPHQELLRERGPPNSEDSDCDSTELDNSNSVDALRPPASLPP
T17 sequence (P49840 whole entry): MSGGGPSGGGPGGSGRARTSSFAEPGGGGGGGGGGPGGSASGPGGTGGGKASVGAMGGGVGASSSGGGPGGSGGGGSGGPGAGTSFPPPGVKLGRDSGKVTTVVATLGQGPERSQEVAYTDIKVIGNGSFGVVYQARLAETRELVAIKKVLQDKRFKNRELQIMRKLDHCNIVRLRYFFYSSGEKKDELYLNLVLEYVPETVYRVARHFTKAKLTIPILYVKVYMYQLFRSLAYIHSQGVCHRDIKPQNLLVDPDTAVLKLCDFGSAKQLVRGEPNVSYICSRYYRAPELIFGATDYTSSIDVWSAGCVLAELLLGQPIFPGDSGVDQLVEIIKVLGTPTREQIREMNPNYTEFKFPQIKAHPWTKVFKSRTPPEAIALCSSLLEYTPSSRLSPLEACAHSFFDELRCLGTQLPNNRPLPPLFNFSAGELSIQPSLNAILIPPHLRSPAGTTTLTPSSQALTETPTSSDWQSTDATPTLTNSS
T35 sequence (Q9H2K8 whole entry): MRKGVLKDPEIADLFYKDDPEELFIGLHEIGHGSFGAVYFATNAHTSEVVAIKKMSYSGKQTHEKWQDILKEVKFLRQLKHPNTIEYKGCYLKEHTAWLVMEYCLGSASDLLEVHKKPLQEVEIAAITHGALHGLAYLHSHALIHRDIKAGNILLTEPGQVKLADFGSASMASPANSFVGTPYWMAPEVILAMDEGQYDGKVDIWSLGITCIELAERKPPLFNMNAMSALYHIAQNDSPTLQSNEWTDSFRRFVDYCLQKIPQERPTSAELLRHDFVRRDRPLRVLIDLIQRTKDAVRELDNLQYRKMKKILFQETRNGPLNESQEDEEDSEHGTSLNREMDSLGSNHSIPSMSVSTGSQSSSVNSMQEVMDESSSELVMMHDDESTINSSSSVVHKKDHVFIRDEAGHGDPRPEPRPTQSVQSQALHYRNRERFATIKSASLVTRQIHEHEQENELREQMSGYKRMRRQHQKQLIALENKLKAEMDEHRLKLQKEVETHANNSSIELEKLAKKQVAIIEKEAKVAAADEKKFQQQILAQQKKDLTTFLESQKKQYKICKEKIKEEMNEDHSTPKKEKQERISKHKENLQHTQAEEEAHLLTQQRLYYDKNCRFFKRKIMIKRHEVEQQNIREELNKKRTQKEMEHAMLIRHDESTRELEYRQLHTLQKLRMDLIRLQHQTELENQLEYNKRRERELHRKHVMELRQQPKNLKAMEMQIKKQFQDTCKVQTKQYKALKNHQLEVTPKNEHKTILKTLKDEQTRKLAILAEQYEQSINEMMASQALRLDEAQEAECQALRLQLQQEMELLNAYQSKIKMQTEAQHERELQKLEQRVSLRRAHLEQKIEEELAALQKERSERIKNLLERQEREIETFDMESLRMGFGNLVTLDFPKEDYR
T25 sequence (Q8NG66 whole entry): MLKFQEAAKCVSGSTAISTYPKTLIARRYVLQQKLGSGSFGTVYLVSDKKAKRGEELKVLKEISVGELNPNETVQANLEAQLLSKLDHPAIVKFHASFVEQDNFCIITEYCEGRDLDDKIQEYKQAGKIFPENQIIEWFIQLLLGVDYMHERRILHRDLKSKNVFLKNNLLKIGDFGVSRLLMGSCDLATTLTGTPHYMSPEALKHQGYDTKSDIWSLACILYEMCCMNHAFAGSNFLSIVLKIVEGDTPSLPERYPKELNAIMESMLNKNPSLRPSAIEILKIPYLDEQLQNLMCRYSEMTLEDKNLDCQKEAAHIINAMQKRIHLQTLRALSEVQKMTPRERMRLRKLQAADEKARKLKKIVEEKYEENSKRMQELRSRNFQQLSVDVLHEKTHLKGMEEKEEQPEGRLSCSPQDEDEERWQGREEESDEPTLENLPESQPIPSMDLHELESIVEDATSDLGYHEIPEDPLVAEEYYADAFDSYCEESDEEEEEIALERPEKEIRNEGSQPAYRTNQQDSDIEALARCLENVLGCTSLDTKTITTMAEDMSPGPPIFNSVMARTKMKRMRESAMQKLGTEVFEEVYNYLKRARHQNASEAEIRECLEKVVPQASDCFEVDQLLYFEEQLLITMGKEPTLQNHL
T31 sequence (Q99640 whole entry): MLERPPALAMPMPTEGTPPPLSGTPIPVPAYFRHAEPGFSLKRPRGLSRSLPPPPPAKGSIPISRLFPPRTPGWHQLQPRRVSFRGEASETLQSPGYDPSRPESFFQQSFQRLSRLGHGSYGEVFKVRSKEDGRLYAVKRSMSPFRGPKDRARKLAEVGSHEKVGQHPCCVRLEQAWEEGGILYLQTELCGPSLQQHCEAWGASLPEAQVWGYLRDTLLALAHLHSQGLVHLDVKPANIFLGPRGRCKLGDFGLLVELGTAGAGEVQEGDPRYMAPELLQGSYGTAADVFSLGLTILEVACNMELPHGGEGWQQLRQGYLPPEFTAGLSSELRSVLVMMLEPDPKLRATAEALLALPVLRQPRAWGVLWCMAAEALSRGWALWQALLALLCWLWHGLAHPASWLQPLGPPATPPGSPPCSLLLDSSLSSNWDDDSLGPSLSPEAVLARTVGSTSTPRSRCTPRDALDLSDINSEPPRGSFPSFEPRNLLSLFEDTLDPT
T23 sequence (Q32MK0 whole entry): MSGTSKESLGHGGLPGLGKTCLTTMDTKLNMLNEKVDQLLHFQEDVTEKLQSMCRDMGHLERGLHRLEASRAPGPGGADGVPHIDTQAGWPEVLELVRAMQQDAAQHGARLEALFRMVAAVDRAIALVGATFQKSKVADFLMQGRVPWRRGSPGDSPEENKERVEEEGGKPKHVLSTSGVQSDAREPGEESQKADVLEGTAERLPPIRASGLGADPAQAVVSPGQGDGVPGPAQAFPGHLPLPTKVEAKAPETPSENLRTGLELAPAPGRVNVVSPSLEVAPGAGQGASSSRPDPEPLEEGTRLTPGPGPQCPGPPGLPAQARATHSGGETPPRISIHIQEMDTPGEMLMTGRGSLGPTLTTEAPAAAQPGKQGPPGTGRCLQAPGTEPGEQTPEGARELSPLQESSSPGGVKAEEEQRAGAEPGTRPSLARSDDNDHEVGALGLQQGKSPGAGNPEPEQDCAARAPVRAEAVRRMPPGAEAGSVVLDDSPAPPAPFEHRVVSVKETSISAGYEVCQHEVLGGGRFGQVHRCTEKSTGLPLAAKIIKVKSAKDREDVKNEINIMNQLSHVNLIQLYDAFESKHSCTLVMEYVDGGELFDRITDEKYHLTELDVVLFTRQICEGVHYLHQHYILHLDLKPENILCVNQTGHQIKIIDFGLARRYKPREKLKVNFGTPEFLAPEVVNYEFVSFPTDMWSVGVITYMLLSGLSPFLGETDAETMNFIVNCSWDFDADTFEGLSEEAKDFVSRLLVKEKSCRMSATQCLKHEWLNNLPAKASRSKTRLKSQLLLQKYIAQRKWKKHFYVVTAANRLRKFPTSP
T2 sequence (Q9UQ88 whole entry): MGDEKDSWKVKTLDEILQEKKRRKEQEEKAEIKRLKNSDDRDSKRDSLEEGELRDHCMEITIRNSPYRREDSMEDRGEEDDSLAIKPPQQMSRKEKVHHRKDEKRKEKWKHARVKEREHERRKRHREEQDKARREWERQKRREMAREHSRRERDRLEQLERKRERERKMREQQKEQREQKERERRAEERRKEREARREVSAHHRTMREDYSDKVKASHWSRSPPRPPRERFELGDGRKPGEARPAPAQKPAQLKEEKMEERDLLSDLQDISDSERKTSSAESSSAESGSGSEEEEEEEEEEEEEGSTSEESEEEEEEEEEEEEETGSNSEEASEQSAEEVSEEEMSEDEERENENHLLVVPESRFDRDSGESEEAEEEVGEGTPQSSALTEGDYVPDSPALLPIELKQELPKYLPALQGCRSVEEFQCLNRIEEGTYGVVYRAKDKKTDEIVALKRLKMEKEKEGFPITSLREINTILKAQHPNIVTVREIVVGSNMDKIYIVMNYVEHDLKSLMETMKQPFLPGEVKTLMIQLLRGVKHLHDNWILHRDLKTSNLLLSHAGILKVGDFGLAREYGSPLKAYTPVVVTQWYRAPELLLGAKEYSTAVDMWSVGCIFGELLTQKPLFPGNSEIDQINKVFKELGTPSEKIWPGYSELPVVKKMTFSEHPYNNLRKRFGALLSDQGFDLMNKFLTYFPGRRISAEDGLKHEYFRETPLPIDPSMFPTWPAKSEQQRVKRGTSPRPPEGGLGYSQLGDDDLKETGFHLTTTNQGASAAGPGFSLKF

SMILES: Cc1nc(NC(=O)[C@@H](N)C(C)C)sc1-c1cnc(Cl)c(NS(=O)(=O)c2ccccc2)c1 [PI3KD-IN-015]
- KinomeScan AKT3 (AKT3): 89
- KinomeScan CDC2L2 (CDC2L2): 100
- KinomeScan CHEK1 (CHEK1): 100
- KinomeScan CSNK2A1 (CSNK2A1): 100
- KinomeScan DCAMKL3 (DCAMKL3): 100
- KinomeScan DLK (DLK): 99
- KinomeScan EGFR(L747-S752del, P753S) [1]: 100
- KinomeScan EGFR(L858R,T790M) (EGFR(L858R,T790M)): 100
- KinomeScan EGFR(S752-I759del) (EGFR(S752-I759del)): 100
- KinomeScan EGFR(T790M) (EGFR(T790M)): 70
- KinomeScan EPHB3 (EPHB3): 100
- KinomeScan FER (FER): 89
- KinomeScan FGFR1 (FGFR1): 100
- KinomeScan FGFR3 (FGFR3): 100
- KinomeScan FLT3(K663Q) (FLT3(K663Q)): 100
- KinomeScan FLT4 (FLT4): 93
- KinomeScan GSK3A (GSK3A): 95
- KinomeScan HPK1 (HPK1): 87
- KinomeScan JNK2 (JNK2): 100
- KinomeScan KIT(V559D,V654A) (KIT(V559D,V654A)): 97
- KinomeScan LRRK2 (LRRK2): 100
- KinomeScan MAST1 (MAST1): 100
- KinomeScan MLCK (MLCK): 95
- KinomeScan NEK10 (NEK10): 83
- KinomeScan NEK11 (NEK11): 86
- KinomeScan NEK7 (NEK7): 100
- KinomeScan PAK3 (PAK3): 92
- KinomeScan PIK3CA(H1047L) (PIK3CA(H1047L)): 0
- KinomeScan PIP5K2B (PIP5K2B): 100
- KinomeScan PKAC-alpha (PKAC-alpha): 96
- KinomeScan PKMYT1 (PKMYT1): 100
- KinomeScan SGK2 (SGK2): 81
- KinomeScan SNARK (SNARK): 97
- KinomeScan SNRK (SNRK): 100
- KinomeScan TAOK3 (TAOK3): 93
- KinomeScan TYK2(JH1domain-catalytic) [2]: 100
- KinomeScan YES (YES): 100
- IC50 (PI4KB): 172 nM
- GI50 [3]: 1000 to 10000 nM
